According to US11696903B2, “Compounds and methods for scavenging dicarbonyl electrophiles” (VANDERBILT UNIVERSITY, priority 2019, dated 2023):
“Also recorded” adds a separate entry of the source.

Assays:
[1] = EtSA in gastric tissues (LC/ESI/MS/MS); type: in vivo, INS-GAS mice; settings: EtSA in drinking water
Procedure: FIGS. 16A, 16B, 16C, 16D, 16E, and 16F show INS-GAS mice (8 per group) were infected or not with H. pylori strain PMS for 8 weeks and then treated with EtSA (7.5 mg/ml) one week after infection. (A) EtSA concentration in gastric tissues; **P<0.01, ****P<0.0001 vs. mice without EtSA. (B) Frequency of diagnoses. IMC, intramucosal carcinoma; LGD, low grade dysplasia; ND, no dysplasia. (C) Quantification of extent of dysplasia and cancer as a percentage of tissue sections. (D) H&E staining of INS-GAS mouse stomach tissues, showing carcinoma in an infected mouse; scale bar, 50 μm. In B and C, *P<0.05, **P<0.01 vs. infected mice.
As discussed further in the Examples, the human gastric epithelial cell line AGS was infected with Hp PMSS1±10 mM EtSA. FVB/N insulin-gastrin (INS-GAS) mice and Mongolian gerbils were infected for 8 wk with Hp PMSS1 and 7.13, respectively; EtSA (0.75% in water) was given to animals beginning one wk post-infection. Lys-LG adducts, a marker of electrophile reactions, and EtSA were quantified by LC/EST/MS/MS. Histology was analyzed on H&E staining. DNA damage was evaluated by pH2AX staining. Hp colonization was quantified by culture. Mucosal immune responses were determined by RNA profiling and by Luminex assay. Mice were imaged using PET/CT with ^18F-FDG (inflammation marker) and ^18F—NaF (tumor marker). […]

[2] = tested on: COX-2 activity; experiment: PGE2 production in A549 cell media (GC/MS) as measure of COX-2 activity; type: cell-based, human
Procedure: (A). Scavengers were screened in RAW264.7 cells for the ability to decrease LG adduct formation on histones. Scavengers used were glucosamine (GA), 3-methoxysalicylamine (3-MoSA), pentylpyridoxamine (PPM), and 5-ethylsalicylamine (EtSA). Cells were stimulated to express COX-2, pretreated 45 min. with 500 μM scavenger or vehicle (H2O), and given 20 μM AA for 1 h before lysing and extracting histones. Histone proteins were analyzed by LC/ESI/MS/MS for LG-lysyl lactam adduct, n=2. (B) Stimulated A549 cells were pretreated with 30, 300, or 1000 μM EtSA prior to 1 h with 20 μM AA, and histones analyzed for LG-lysyl adduct. *, p<0.05 by one-way ANOVA followed by Dunnett's multiple comparisons post-test (n=3-5). (C). A549 cells were stimulated, pretreated 45 min. with 1000 μM EtSA or H2O vehicle, and given 20 μM AA for 1 h. Media was analyzed by GC/MS for PGE2 (n=3). There was no effect on PGE2 production at lower doses of EtSA (data not shown).
To stimulate COX-2 expression, A549 or RAW264.7 cells were treated overnight with 5 ng/mL IL-1B (A549) or 10 μg/mL LPS and 10 U/mL IFNγ (RAW264.7) in serum-free medium. When indicated, cells were pretreated with indomethacin, aldehyde scavengers (glucosamine, 3-MoSA, PPM or EtSA), or vehicle (ethanol for indomethacin, H2O for scavengers) for 45 min, and then given 20 μM arachidonic acid (AA) or DMSO vehicle for 1 h before lysing. […]

[3] = tested on: H. pylori; experiment: Hp gastric colonization quantified by culture; type: in vivo, Helicobacter pylori; settings: INS-GAS mice, EtSA treatment
Procedure: As discussed further in the Examples, the human gastric epithelial cell line AGS was infected with Hp PMSS1±10 mM EtSA. FVB/N insulin-gastrin (INS-GAS) mice and Mongolian gerbils were infected for 8 wk with Hp PMSS1 and 7.13, respectively; EtSA (0.75% in water) was given to animals beginning one wk post-infection. Lys-LG adducts, a marker of electrophile reactions, and EtSA were quantified by LC/EST/MS/MS. Histology was analyzed on H&E staining. DNA damage was evaluated by pH2AX staining. Hp colonization was quantified by culture. Mucosal immune responses were determined by RNA profiling and by Luminex assay. Mice were imaged using PET/CT with ^18F-FDG (inflammation marker) and ^18F—NaF (tumor marker).
The effect of a scavenger of levuglandins and other dicarbonyls was investigated in transgenic INS-GAS mice, which have high circulating gastrin levels and develop atrophic gastritis, and dysplasia and carcinoma with H. pylori infection. Mice were infected with H. pylori, and then EtSA was administered in drinking water, starting 7 days after infection. After 8 weeks, EtSA levels were measured in the gastric tissues of uninfected and infected mice receiving this compound (FIG. 16A). […] There was no dysplasia or carcinoma in uninfected mice (FIG. 16D).

[4] = tested on: LG-histone adducts in A549 cells; experiment: LG-lysyl adduct formation on histones in A549 cells (LC/ESI/MS/MS); type: cell-based, human; settings: stimulated A549, 30, 300 or 1000 μM EtSA, 20 μM AA 1 h
Procedure: FIGS. 11A, 11B, 11C, 11D, 11E, and 11F are a series of graphs showing that LG-lysine adducts of histones are found in cells and tissue, dependent on COX-2 activity. RAW264.7 mouse macrophage (A) and A549 human lung carcinoma (C) cells were stimulated to express COX-2, then given 20 μM arachidonic acid (AA) or vehicle. A subgroup of cells was preincubated 45 min with 50 μM indomethacin. As a measure of COX activity, PGE2 was determined by GC/MS from cell media prior to lysis (B and D). Nuclei were isolated, and histones were extracted and digested to individual amino acids prior to LC/EST/MS/MS analysis. *, p<0.05; ***, p<0.001 by ANOVA followed by Tukey's post-test (n≥5). (E). Histones were extracted from nuclei of rat liver, and analyzed as above for LG-lactam adduct. COX-2 protein was analyzed by Western blotting and plotted against lactam adduct levels. Each point corresponds to 1 liver, and shown is the line of regression (r^2=0.7237). Pearson r=0.8507; two-tailed p=0.0152. […]
(A). […] Histone proteins were analyzed by LC/ESI/MS/MS for LG-lysyl lactam adduct, n=2. (B) Stimulated A549 cells were pretreated with 30, 300, or 1000 μM EtSA prior to 1 h with 20 μM AA, and histones analyzed for LG-lysyl adduct. *, p<0.05 by one-way ANOVA followed by Dunnett's multiple comparisons post-test (n=3-5). […] Media was analyzed by GC/MS for PGE2 (n=3). […]

In the case of CCc1ccc(O)c(CN)c1 [EtHOBA, 5-ethyl-2-hydroxybenzylamine], the “EtSA bioavailability in the stomach” value [1] is reported as “bioavailable in the stomach”, the PGE2 production ([2]; A549, highest concentration tested (1000 μM EtSA)) is reported as “without affecting” and the PGE2 production ([2]; A549, lower doses of EtSA (data not shown)) is reported as “no effect”. For the same compound, the Hp colonization [3] was “not reduced; also recorded: not affected” and the LG-histone adduct formation [4] was “inhibited”.
